Assay results: PubChem BioAssay (NCI)
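48-hour exposure; five concentrations; linearly interpolated endpoints. At the GI50, growth is halved. TGI denotes the concentration required for complete inhibition of growth.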

Experiments:
Assay in all cases: inhibition of tumour cell growth, NCI panel, 48 h
[1] = tested on: HL-60(TB) leukemia
[2] = tested on: TK-10 renal
[3] = tested on: OVCAR-4 ovarian
[4] = tested on: SF-539 CNS
[5] = tested on: SK-MEL-28 melanoma
[6] = tested on: LOX IMVI melanoma
[7] = tested on: K-562 leukemia
[8] = tested on: DU-145 prostate
[9] = tested on: UACC-257 melanoma
[10] = tested on: SF-268 CNS
[11] = tested on: M14 melanoma
[12] = tested on: U251 CNS
[13] = tested on: OVCAR-3 ovarian
[14] = tested on: SK-OV-3 ovarian
[15] = tested on: HOP-62 NSCLC
[16] = tested on: SNB-75 CNS
[17] = tested on: OVCAR-8 ovarian
[18] = tested on: UO-31 renal
[19] = tested on: SR leukemia
[20] = tested on: PC-3 prostate
[21] = tested on: MDA-MB-435
[22] = tested on: CAKI-1 renal
[23] = tested on: IGROV1 ovarian
[24] = tested on: MCF7 breast
[25] = tested on: MOLT-4 leukemia
[26] = tested on: HCC-2998 colon
[27] = tested on: CCRF-CEM leukemia
[28] = tested on: HOP-92 NSCLC
[29] = tested on: NCI-H23 lung

Cc1cccc2c3c(sc12)C(c1ccc(F)cc1)C(C#N)=C(/N=C/c1ccc(Cl)cc1)O3 (stereo not drawn)
GI50 [1]: 339 nM | TGI [1]: 971 nM | GI50 [2]: 20100 nM | TGI [2]: 66200 nM | GI50 [3]: 2270 nM | TGI [3]: 20100 nM | GI50 [4]: 277 nM | TGI [4]: 827 nM | GI50 [5]: 1430 nM | TGI [5]: 22600 nM | GI50 [6]: 555 nM | TGI [6]: 6300 nM | GI50 [7]: 310 nM | TGI [7]: 14200 nM | GI50 [8]: 485 nM | TGI [8]: 19300 nM | GI50 [9]: 3810 nM | TGI [9]: 32200 nM | GI50 [10]: 1830 nM | TGI [10]: 16200 nM | GI50 [11]: 310 nM | TGI [11]: 8380 nM | GI50 [12]: 423 nM | TGI [12]: 8760 nM | GI50 [13]: 395 nM | TGI [13]: 5390 nM | GI50 [14]: 521 nM | TGI [14]: 41900 nM | GI50 [15]: 552 nM | TGI [15]: 15100 nM | GI50 [16]: 275 nM | TGI [16]: 3630 nM | GI50 [17]: 487 nM | TGI [17]: 4180 nM | GI50 [18]: 572 nM | TGI [18]: 15300 nM | GI50 [19]: 317 nM | TGI [19]: 13200 nM | GI50 [20]: 415 nM | TGI [20]: 13500 nM | GI50 [21]: 175 nM | TGI [21]: 373 nM | GI50 [22]: 389 nM | TGI [22]: 15200 nM | GI50 [23]: 632 nM | TGI [23]: 19200 nM | GI50 [24]: 322 nM | TGI [24]: 14000 nM | GI50 [25]: 476 nM | TGI [25]: 14200 nM | GI50 [26]: 414 nM | TGI [26]: 2470 nM | GI50 [27]: 404 nM | TGI [27]: > 37300 nM | GI50 [28]: 2190 nM | TGI [28]: 15800 nM | GI50 [29]: 536 nM | TGI [29]: 16400 nM
